Test results as given in patent US12516346B2, “Intelligent genetic breeding and seed production system for crop cross breeding and hybrid seed production, and application thereof” (Hainan Bolian Technology Co., Ltd., priority 2020, dated 2026).

Columns and labels:
Format in all cases: in vivo, rice
[1] = system: GAT T0 generation transformants and wild-type control ZH11; experiment: Bentazon sensitive phenotype, spraying of scribed leaf area, T0 generation
Protocol: In order to test the working efficiency of herbicide sensitive elements in the GAT system, after the identification of bispyribac-sodium resistance phenotype, a 3 g/L bentazone solution was prepared with 48% bentazone mother liquor (Changzhou Precision Biotechnology Co., Ltd.). The scribed area of plant leaves of surviving GAT T0 generation (347 strains) in the last spraying experiment with bispyribac-sodium and the wild-type control ZH11 were sprayed with the resultant solution, and were continuously observed after spraying. Some GAT transformants T0 had curly and yellow leaf tips on the third day after spraying. […] Meanwhile, 86 strains were highly resistant to bispyribac-sodium and highly sensitive to bentazone. Based on the similar analysis of the transformation events of the above bispyribac-sodium resistance strains, it can be seen that this experiment confirmed that the working efficiency of herbicide sensitive elements in the GAT system is high, and the created GAT seed breeding system can quickly and accurately identify the corresponding phenotype thereof.

[2] = system: T1 generation seedlings of GAT key plants, ZH11, CK+ (P450i2-30); experiment: Bentazone spraying of T1 generation seedlings; conditions: 3 g/L bentazone
Protocol: In order to identify the working efficiency of herbicide sensitive elements in the T1 generation of the GAT transformants, a 3 g/L bentazone solution was prepared with 48% bentazone mother liquor (Changzhou Precision Biotechnology Co., Ltd.). Some plants in the positive strains screened by bispyribac-sodium in Example 5-1 were sprayed, and continuously observed after spraying. […] See Table 3 and FIG. 22 for specific results.
ZH11 is Resistance Control, CK+(P450i2-30) is the Sensitive Positive Control

[3] = system: GAT T0 generation transformants and wild-type control ZH11 seedlings; experiment: Bispyribac-sodium resistance phenotype, spraying of T0 seedlings
Protocol: In order to test the working efficiency of screening marker elements in the GAT system, a 600 mg/L bispyribac-sodium solution was prepared with 10% bispyribac-sodium (Nominee, Japan), and 563 GATT0 generation obtained in example 2 and wild-type control ZH11 3 to 5 leaf stage seedlings were sprayed. After spraying, continuous observation was carried out.

[4] = system: seeds of GAT key strains and ZH11; experiment: Tissue culture germination screening on bispyribac-sodium (BS) medium; conditions: 1/2MS + 3 μm bispyribac-sodium
Protocol: In order to identify the working efficiency of screening marker elements in the GAT T1 generation, tissue culture germination was used to screen the T1 generation of key strains and candidate strains.
Therefore, ½MS medium+3 μm bispyribac-sodium was prepared for screening the key strains and the candidate strains of GAT, and the germination results were shown in Table 2.

[5] = system: seeds of GAT strains, hybrids with sterile line 1907, ZH11, 9311, MH63; experiment: Detection of the escape rate of GAT pollen: seed screening on BS medium; conditions: 21 days; for Survival number / Survival rate: 1/2MS + 3uM BS
Source text: To further detect whether its pollen escapes, in this example, the rice material of common sterile line was pollinated through the strains of the excellent initial maintainer line of GAT, and it was checked whether the hybrid seed has the resistance to bispyribac-sodium (the method is the same as that in Example 5). […] GAT strains (23-2, 88-4) were selected as male parents to pollinate female sterile line 1907, and 221 and 373 hybrid seeds were obtained respectively.

[6] = 347 GAT T0 strains, 3 g/L bentazone
[7] = strain 11-1 T1, 8 plants sprayed
[8] = strain 23-2 T1, 12 plants sprayed
[9] = strain 23 T1, 14 plants sprayed
[10] = strain 53-3 T1, 8 plants sprayed
[11] = strain 77-2 T1, 2 plants sprayed
[12] = strain 88-4 T1, 13 plants sprayed
[13] = strain 93-2 T1, 9 plants sprayed
[14] = strain 95-2 T1, 2 plants sprayed
[15] = strain 174-3 T1, 10 plants sprayed
[16] = strain 175-4 T1, 7 plants sprayed
[17] = strain CK + (P450i2-30) (sensitive positive control), 4 plants sprayed
[18] = strain ZH11 (resistance control), 4 plants sprayed
[19] = 563 GAT T0 transformants, 600 mg/L spray, 14th day
[20] = hybrid 1907 × 23-2(T1), total number 211
[21] = hybrid 1907×88-4(T1), total number 363
[22] = strain 23-2(T2), total number 200
[23] = strain 88-4(T2), total number 200

## CC(C)N1C(=O)c2ccccc2NS1(=O)=O [bentazone]
[1]; [6]
  number of low sensitive or non-phenotypic strains: 122 strains
  number of strains withered severely then recovered (moderately sensitive): 81 strains
[1]; 347 GAT T0 strains, 3 g/L bentazone, 7th to 14th day
  number of strains with irreversible leaf wilt (highly sensitive): 144 strains
[1]; GAT T0 strains, 600 mg/L bispyribac-sodium then 3 g/L bentazone
  number of strains highly resistant to bispyribac-sodium and highly sensitive to bentazone: 86 strains
[2]; T1 strains
  number of strains with individual plants slightly less sensitive, eventually died: 5 strains
[2]; bispyribac-sodium resistance T1 strains, 14th day
  number of strains highly susceptible to wilt and death (highly sensitive): 6 strains
[2]; strain 4 T1, 2 plants sprayed
  Highly sensitive ratio: 1/2
  Highly sensitive(dead): 1
  Low sensitivity: 0
  Medium sensitivity: 1
  No phenotype: 0
[2]; strain 7 T1, 15 plants sprayed
  Highly sensitive ratio: 2/15
  Highly sensitive(dead): 2
  Low sensitivity: 13
  Medium sensitivity: 0
  No phenotype: 0
[2]; [7]
  Highly sensitive ratio: 8/8
  Highly sensitive(dead): 8
  Low sensitivity: 0
  Medium sensitivity: 0
  No phenotype: 0
[2]; strain 20 T1, 3 plants sprayed
  Highly sensitive ratio: 2/3
  Highly sensitive(dead): 2
  Low sensitivity: 0
  Medium sensitivity: 1
  No phenotype: 0
[2]; [8]
  Highly sensitive ratio: 11/12
  Highly sensitive(dead): 11
  Low sensitivity: 0
  Medium sensitivity: 1
  No phenotype: 0
[2]; [9]
  Highly sensitive ratio: 14/14
  Highly sensitive(dead): 14
  Low sensitivity: 0
  Medium sensitivity: 0
  No phenotype: 0
[2]; strain 28 T1, 7 plants sprayed
  Highly sensitive ratio: 7/7
  Highly sensitive(dead): 7
  Low sensitivity: 0
  Medium sensitivity: 0
  No phenotype: 0
[2]; [10]
  Highly sensitive ratio: 8/8
  Highly sensitive(dead): 8
  Low sensitivity: 0
  Medium sensitivity: 0
  No phenotype: 0
[2]; [11]
  Highly sensitive ratio: 2/2
  Highly sensitive(dead): 2
  Low sensitivity: 0
  Medium sensitivity: 0
  No phenotype: 0
[2]; [12]
  Highly sensitive ratio: 12/13
  Highly sensitive(dead): 12
  Low sensitivity: 0
  Medium sensitivity: 1
  No phenotype: 0
[2]; [13]
  Highly sensitive ratio: 8/9
  Highly sensitive(dead): 8
  Low sensitivity: 1
  Medium sensitivity: 0
  No phenotype: 0
[2]; [14]
  Highly sensitive ratio: 2/2
  Highly sensitive(dead): 2
  Low sensitivity: 0
  Medium sensitivity: 0
  No phenotype: 0
[2]; [15]
  Highly sensitive ratio: 4/10
  Highly sensitive(dead): 4
  Low sensitivity: 6
  Medium sensitivity: 0
  No phenotype: 0
[2]; [16]
  Highly sensitive ratio: 5/7
  Highly sensitive(dead): 5
  Low sensitivity: 0
  Medium sensitivity: 2
  No phenotype: 0
[2]; [17]
  Highly sensitive ratio: 4/4
  Highly sensitive(dead): 4
  Low sensitivity: 0
  Medium sensitivity: 0
  No phenotype: 0
[2]; [18]
  Highly sensitive ratio: 0/4
  Highly sensitive(dead): 0
  Low sensitivity: 0
  Medium sensitivity: 0
  No phenotype: 4

## COc1cc(OC)nc(Oc2cccc(Oc3nc(OC)cc(OC)n3)c2C(=O)O)n1 [bispyribac-sodium]
[3]; [19]
  number of growth inhibited strains (mediumly resistant): 163 strains
  number of irreversible death or near-death strains (non-resistant or low resistant): 216 strains
  number of normal growth strains (highly resistant): 184 strains
[3]; GAT T0 transformants, 600 mg/L spray
  probability of GAT transformants showing normal growth, highly resistant: 32.68%
[3]; control ZH11, 600 mg/L bispyribac-sodium spray, 3 to 5 leaf stage, third day
  appearance of leaves after spraying: withered and yellow
[3]; control ZH11, 600 mg/L bispyribac-sodium spray, 14th day
  appearance after spraying: completely died
[3]; control ZH11, 600 mg/L bispyribac-sodium spray, seventh day
  appearance after spraying: withered and yellow and was dying
[4]; strain 4, 45 seeds
  Germination: 24
  Non-germination: 21
[4]; strain 7, 29 seeds
  Germination: 11
  Non-germination: 18
[4]; strain 11-1, 58 seeds
  Germination: 26
  Non-germination: 32
[4]; strain 20, 40 seeds
  Germination: 10
  Non-germination: 30
[4]; strain 23-2, 30 seeds
  Germination: 19
  Non-germination: 11
[4]; strain 23, 110 seeds
  Germination: 61
  Non-germination: 49
[4]; strain 28, 59 seeds
  Germination: 16
  Non-germination: 43
[4]; strain 53-3, 19 seeds
  Germination: 7
  Non-germination: 12
[4]; strain 77-2, 46 seeds
  Germination: 29
  Non-germination: 17
[4]; strain 88-4, 62 seeds
  Germination: 30
  Non-germination: 32
[4]; strain 93-2, 34 seeds
  Germination: 15
  Non-germination: 19
[4]; strain 95-2, 35 seeds
  Germination: 10
  Non-germination: 25
[4]; strain 174-3, 15.2 seeds
  Germination: 12
  Non-germination: 3.2
[4]; strain 175-4
  Germination: 14
[4]; strain 175-4, 27.3 seeds
  Non-germination: 13.3
[4]; strain ZH11 (CK), 40 seeds
  Germination: 0
  Non-germination: 40
[5]; [20]
  Survival number: 0
  Survival rate: 0.00%
[5]; [21]
  Survival number: 0
  Survival rate: 0.00%
[5]; hybrid seeds 1907 x GAT strains 23-2, 88-4, 1/2MS+3 uM BS
  germination rate: 0%
[5]; [22]
  Survival number: 95
  Survival rate: 47.50%
[5]; [23]
  Survival number: 83
  Survival rate: 41.50%
[5]; strain 9311, total number 200
  Survival number: 0
  Survival rate: 0.00%
[5]; strain MH63, total number 200
  Survival number: 0
  Survival rate: 0.00%
[5]; strain ZH11, total number 200
  Survival number: 0
  Survival rate: 0.00%
